Data as given in patent US6476076B1 (priority 1999, dated 2002).

Key:
[1] = system: DRG neurons; test: cells; type: cell-based; conditions: Rattus norvegicus, DRG neuron, 10 min, read-out: 45Ca Influx EC50
[2] = system: acetic acid-induced writhing in ICR mice; test: animal or person; type: in vivo, mouse; conditions: Mus musculus, ip, read-out: Writhing Test ED50
[3] = system: PBQ-induced writhing in ICR mice; test: animal or person; type: in vivo, mouse
[4] = system: TPA-induced ear edema in ICR mice; conditions: mouse, in vivo
[5] = system: rat eye (eye-wiping response); conditions: in vivo

Row | Structure (SMILES) | EC50 [1] [nM] | ED50 [2] [µg/kg] | ED50 ([3]; Mus musculus, ip, read-out: Writhing Test ED50) [µg/kg] | Relative Potency (Writhing Test) ([3]; mouse, in vivo) | Ear Edema Assay ID50 [4] [μg/ear] | Relative Potency (Ear Edema Assay) [4] | antiinflammatory activity in the TPA ear edema assay (in words) [4] | MPP: moderate pain-producing potency [5] [%] | RPP: relative pain-producing potency [5]
1 | COc1cc(CNC(=S)NCC(COC(=O)C(C)(C)C)Cc2ccc(C)c(C)c2)ccc1OCCN (stereo not shown) [36a, 2,2-Dimethyl Propionic Acid 2-{3-[4-(2-Aminoethoxy)-3-methoxybenzyl]thioureido Methyl}-3-(3,4-dimethylphenyl)propyl Ester] | 83 ± 12 | 14 |  |  |  |  |  |  | 
2 | COc1cc(CNC(=S)NCC(COC(=O)C(C)(C)C)Cc2ccc(C(C)(C)C)cc2)ccc1OCCN (stereo not shown) [36b, 2,2-Dimethyl Propionic Acid 2-{3-[4-(2-Aminoethoxy)-3-methoxybenzyl]thioureido Methyl}-3-(4-t-butylphenyl)propyl Ester] | 377 ± 67 | 48.2 |  |  |  |  |  |  | 
3 | COc1cc(CC(=O)NCCCc2ccc(C)c(C)c2)ccc1OCCN [DA-5018, 2-[4-(2-aminoethoxy)-3-methoxyphenyl]-N-[3-(3,4-dimethylphenyl)propyl]acetamide, reference compound] | 234 | 2.27 | 3 | 100 | 200 | 0.015 | weak topical activity | 0.003 | 10
